Assay results taken from patent US20230416228A1 (Forkhead Biotherapeutics, Inc., priority 2020, published 2023).

Target: T1, human FOXO1 (constitutively active form Thr24Ala, Ser256Ala, Ser319Ala) (Homo sapiens, UniProt Q12778, S256A/S319A/T24A)
T1 construct: expressed in transfected cells; host or cells: HEK293 cells transfected with pcDNA3.1 plasmid
Assay: FOXO1 inhibitor activity assay: cell-based transcriptional (luciferase) reporter assay in HEK293 cells
Conditions: HEK293 cells transfected with insulin response element firefly luciferase reporter, FOXO1 and Renilla luciferase; 10-point dose response 50 μM to 2.5 nM; 24 hours
Protocol: The inhibitory activities of compounds on FOXO1 were determined by a cell-based transcriptional reporter assay. HEK293 cells were plated onto either 384-well poly-D-lysine coated plates (at 7500 cells per well) or 96-well plates (at 20000 cells per well) in low glucose Eagle's Minimum Essential Medium (EMEM) containing 1% fetal bovine serum, and incubated overnight at 37° C. and 5% CO2. […] Duplicate wells were included for each treatment condition. Cells were incubated for 24 hours at 37° C. and 5% CO2. Luciferase activities in each well were measured using Dual-Glog Luciferase Assay System (Promega) according to manufacturer's protocol and an Envision plate reader suitable for luminescence detection. Firefly luciferase activity was divided by Renilla luciferase activity to calculate a ratio for each well. The ratio in wells containing cells transfected with all 3 plasmids listed above and receiving only DMSO without compound addition was set to 100%. The ratio in wells containing cells transfected with plasmid (1), plasmid (3), and pcDNA3.1 containing the open reading frame of red fluorescent protein (instead of human FOXO1) and treated with DMSO was set to 0%. The ratio in each well receiving compound treatment was normalized and expressed as a percentage. Data were fit by 4-parameter logistic regression to determine IC50 and maximal inhibition values. Each compound was tested in a minimum of 2 independent experiments.

T1 sequence (Q12778 whole entry T24A/S256A/S319A): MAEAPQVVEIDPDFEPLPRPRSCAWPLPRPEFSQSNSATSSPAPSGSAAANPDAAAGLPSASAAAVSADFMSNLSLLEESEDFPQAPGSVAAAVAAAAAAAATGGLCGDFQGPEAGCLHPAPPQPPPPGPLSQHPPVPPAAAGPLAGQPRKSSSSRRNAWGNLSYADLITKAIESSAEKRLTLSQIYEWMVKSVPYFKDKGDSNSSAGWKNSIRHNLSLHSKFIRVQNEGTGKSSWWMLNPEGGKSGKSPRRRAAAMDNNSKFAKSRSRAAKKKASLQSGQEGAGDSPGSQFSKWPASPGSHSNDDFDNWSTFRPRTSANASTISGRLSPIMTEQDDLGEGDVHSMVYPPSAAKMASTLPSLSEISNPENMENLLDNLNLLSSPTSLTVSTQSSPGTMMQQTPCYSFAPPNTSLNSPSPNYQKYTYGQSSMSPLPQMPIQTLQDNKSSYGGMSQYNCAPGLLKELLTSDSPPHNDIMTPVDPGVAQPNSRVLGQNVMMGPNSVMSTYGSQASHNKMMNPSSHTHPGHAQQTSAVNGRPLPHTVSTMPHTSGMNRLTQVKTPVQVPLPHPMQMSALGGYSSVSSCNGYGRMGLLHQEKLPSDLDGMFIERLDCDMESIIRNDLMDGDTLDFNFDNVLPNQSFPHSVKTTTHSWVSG

Compound | IC50
COCCOc1ccc(C(=O)Nc2cc(-c3nc4ccccc4[nH]3)[nH]n2)cc1C [Compound A-94, N-[5-(1H-benzimidazol-2-yl)-1H-pyrazol-3-yl]-4-(2-methoxyethoxy)-3-methyl-benzamide] | < 100 nM
Cn1nc(NC(=O)c2ccc(N3CCC(CO)CC3)nc2)cc1-c1nc2ccccc2[nH]1 [Compound A-96, N-[5-(1H-benzimidazol-2-yl)-1-methyl-pyrazol-3-yl]-6-[4-(hydroxy-methyl)-1-piperidyl]pyridine-3-carboxamide] | < 100 nM
O=C(Nc1cc(-c2nc3cc(C(F)(F)F)ccc3[nH]2)[nH]n1)c1ccc(N2CCOCC2)nc1 [Compound A-102, 6-morpholino-N-[5-[5-(trifluoromethyl)-1H-benzimidazol-2-yl]-1H-pyrazol-3-yl]pyridine-3-carboxamide] | > 1000 nM
COCCOc1ccc(C(=O)Nc2cc(-c3nc4ccccc4[nH]3)[nH]n2)cc1F [Compound A-103, N-[5-(1H-benzimidazol-2-yl)-1H-pyrazol-3-yl]-3-fluoro-4-(2-methoxy-ethoxy)benzamide] | < 100 nM
COCCOc1ccc(C(=O)Nc2cc(-c3nc4ccccc4[nH]3)[nH]n2)cc1C(F)(F)F [Compound A-104, N-[5-(1H-benzimidazol-2-yl)-1H-pyrazol-3-yl]-4-(2-methoxyethoxy)-3-(trifluoromethyl)benzamide] | < 100 nM
O=C(Nc1cc(-c2nc3cc(C(F)(F)F)ccc3[nH]2)[nH]n1)c1ccc(N2CCC(O)CC2)nc1 [Compound A-105, 6-(4-hydroxy-1-piperidyl)-N-[5-[5-(trifluoromethyl)-1H-benzimidazol-2-yl]-1H-pyrazol-3-yl]pyridine-3-carboxamide] | > 1000 nM
COc1ccc(C(=O)Nc2cc(-c3nc4ccc(OC)c(F)c4[nH]3)[nH]n2)cc1Cl [Compound A-106, 3-chloro-N-[5-(7-fluoro-6-methoxy-1H-benzimidazol-2-yl)-1H-pyrazol-3-yl]-4-methoxy-benzamide] | 100 to 300 nM
O=C(Nc1cc(-c2nc3cc(OC(F)(F)F)ccc3[nH]2)[nH]n1)c1ccc(N2CCOCC2)nc1 [Compound A-107, 6-morpholino-N-[5-[5-(trifluoromethoxy)-1H-benzimidazol-2-yl]-1H-pyrazol-3-yl]pyridine-3-carboxamide] | > 1000 nM
O=C(Nc1cc(-c2nc3cc(OC(F)(F)F)ccc3[nH]2)[nH]n1)c1ccc(N2CCC(O)CC2)nc1 [Compound A-108, 6-(4-hydroxy-1-piperidyl)-N-[5-[5-(trifluoromethoxy)-1H-benzimidazol-2-yl]-1H-pyrazol-3-yl]pyridine-3-carboxamide] | > 1000 nM
COc1ccc2[nH]c(-c3cc(NC(=O)c4ccc(N5CCC(CO)CC5)nc4)n[nH]3)nc2c1 [Compound A-109, 6-[4-(hydroxymethyl)-1-piperidyl]-N-[5-(5-methoxy-1H-benzimidazol-2-yl)-1H-pyrazol-3-yl]pyridine-3-carboxamide] | < 100 nM
COc1ccc2[nH]c(-c3cc(NC(=O)c4ccc(N5CCOCC5)nc4)n[nH]3)nc2c1 [Compound A-111, N-[5-(5-methoxy-1H-benzimidazol-2-yl)-1H-pyrazol-3-yl]-6-morpholino-pyridine-3-carboxamide] | > 1000 nM
O=C(Nc1cc(-c2nc3cc(OC(F)(F)F)ccc3[nH]2)[nH]n1)c1ccc(N2CCC(CO)CC2)nc1 [Compound A-114, 6-[4-(hydroxymethyl)-1-piperidyl]-N-[5-[5-(trifluoromethoxy)-1H-benzimidazol-2-yl]-1H-pyrazol-3-yl]pyridine-3-carboxamide] | > 1000 nM
Cc1ccc2[nH]c(-c3cc(NC(=O)c4ccc(OCCO)c(Cl)c4)n[nH]3)nc2c1 [Compound A-115, 3-chloro-4-(2-hydroxyethoxy)-N-[5-(5-methyl-1H-benzimidazol-2-yl)-1H-pyrazol-3-yl]benzamide] | < 100 nM
O=C(Nc1cc(-c2nc3cc(OC(F)(F)F)ccc3[nH]2)[nH]n1)c1ccc(OCCO)c(Cl)c1 [Compound A-116, 3-chloro-4-(2-hydroxyethoxy)-N-[5-[5-(trifluoromethoxy)-1H-benzimidazol-2-yl]-1H-pyrazol-3-yl]benzamide] | 100 to 300 nM
O=C(Nc1cc(-c2nc3cc(Br)ccc3[nH]2)[nH]n1)c1ccc(OCCO)c(Cl)c1 [Compound A-118, N-[5-(5-bromo-1H-benzimidazol-2-yl)-1H-pyrazol-3-yl]-3-chloro-4-(2-hydroxyethoxy)benzamide] | 300 to 1000 nM

The next lines start with the values.

IC50 | Compound
> 1000 nM | COc1ccc(Nc2nccc(-c3nc4ccccc4[nH]3)n2)cc1Cl [Compound A-92, 4-(1H-benzimidazol-2-yl)-N-(3-chloro-4-methoxy-phenyl)pyrimidin-2-amine]
< 100 nM | COCCSc1ccc(C(=O)Nc2cc(-c3nc4ccccc4[nH]3)[nH]n2)cc1Cl [Compound A-93, N-[5-(1H-benzimidazol-2-yl)-1H-pyrazol-3-yl]-3-chloro-4-(2-methoxyethylsulfanyl)benzamide]
100 to 300 nM | Cn1nc(NC(=O)c2ccc(N3CCOCC3)cc2)cc1-c1nc2ccccc2[nH]1 [Compound A-95, N-[5-(1H-benzimidazol-2-yl)-1-methyl-pyrazol-3-yl]-4-morpholino-benzamide]
100 to 300 nM | COC1CN(c2ccc(C(=O)Nc3cc(-c4nc5ccccc5[nH]4)n(C)n3)cn2)C1 [Compound A-97, N-[5-(1H-benzimidazol-2-yl)-1-methyl-pyrazol-3-yl]-6-(3-methoxyazetidin-1-yl)pyridine-3-carboxamide]
< 100 nM | Cc1ccc2[nH]c(-c3cc(NC(=O)c4ccc(N5CCC(CO)CC5)nc4)n[nH]3)nc2c1 [Compound A-98, 6-[4-(hydroxymethyl)-1-piperidyl]-N-[5-(5-methyl-1H-benzimidazol-2-yl)-1H-pyrazol-3-yl]pyridine-3-carboxamide]
100 to 300 nM | Cc1ccc2[nH]c(-c3cc(NC(=O)c4ccc(N5CCC(O)CC5)nc4)n[nH]3)nc2c1 [Compound A-99, 6-(4-hydroxy-1-piperidyl)-N-[5-(5-methyl-1H-benzimidazol-2-yl)-1H-pyrazol-3-yl]pyridine-3-carboxamide]
100 to 300 nM | Cc1ccc2[nH]c(-c3cc(NC(=O)c4ccc(N5CCOCC5)nc4)n[nH]3)nc2c1 [Compound A-100, N-[5-(5-methyl-1H-benzimidazol-2-yl)-1H-pyrazol-3-yl]-6-morpholino-pyridine-3-carboxamide]
> 1000 nM | O=C(Nc1cc(-c2nc3cc(C(F)(F)F)ccc3[nH]2)[nH]n1)c1ccc(N2CCC(CO)CC2)nc1 [Compound A-101, 6-[4-(hydroxymethyl)-1-piperidyl]-N-[5-[5-(trifluoromethyl)-1H-benzimidazol-2-yl]-1H-pyrazol-3-yl]pyridine-3-carboxamide]
300 to 1000 nM | COc1ccc(C(=O)Nc2cc(-c3cn4ccccc4n3)[nH]n2)cc1Cl [Compound A-112, 3-chloro-N-(5-imidazo[1,2-a]pyridin-2-yl-1H-pyrazol-3-yl)-4-methoxy-benzamide]
< 100 nM | Cc1cc(C(=O)Nc2cc(-c3nc4ccccc4[nH]3)[nH]n2)ccc1OCCO [Compound A-113, N-[5-(1H-benzimidazol-2-yl)-1H-pyrazol-3-yl]-4-(2-hydroxyethoxy)-3-methyl-benzamide]
< 100 nM | COc1ccc2[nH]c(-c3cc(NC(=O)c4ccc(OCCO)c(Cl)c4)n[nH]3)nc2c1 [Compound A-117, 3-chloro-4-(2-hydroxyethoxy)-N-[5-(5-methoxy-1H-benzimidazol-2-yl)-1H-pyrazol-3-yl]benzamide formic acid]
